# Experiments:
# Format in all cases: biochemical
# gamma-secretase = gamma-secretase (Homo sapiens, UniProt P05067); test: Gamma-secretase cleavage of CTFβ substrate (HeLa cell membrane extract); settings: Aβ40 detection with 6E-10/G2-10, read-out: CTFβ CLEAVAGE AT POSITION 40
# Description: Accordingly, Examples 1-4 were tested for their ability to inhibit gamma-secretase cleavage of both a full-length CTFβ substrate, as described in Li, 2000, Proc. Natl Acad Sci. 97:6138-6143. The assays were carried out as follows:
# Inhibition of CTFβ Cleavage
# • 10 μL 10× protease inhibitor cocktail (Roche, cat # 1836153) • 25 μL 4× Buffer (50 mM PIPES pH7.0, 150 mM KCl, 5 mM MgCl2, 5 mM CaCl2) • 2 μL 10% CHAPSO • 5 μL HeLa cell membrane extract characterized for gamma-secretase activity • 7 μL 25 μM bacterially expressed CTFβ • 51 μL water • 1 μL compound in DMSO The reactions were incubated at 37° C. for 150 min and quenched with 25 μL 5× RIPA buffer (750mM NaCl, 5% NP-40, 2.5% DOC, 0.5% SDS, 250 mM Tris H8.0). Detection:
# Gamma-secretase cleavage of the CTFβ substrate was assessed by incubating 50 μL of the reaction with 25 μL of 4 μg/mL biotinylated antibody 6E-10 which is specific for the N-terminal region of Aβ, and 25 μL of 1.5 μg/mL of a ruthinylated antibody G2-10, which is specific to the C-terminal region of Aβ40. The C-terminal region is present only after gamma secretase cleavage of Aβ. The antibodies were allowed to bind overnight at room temperature. The following day, 25 μL of 80 μg/mL streptavidin-coated Dynabeads (M-280) were added to each reaction, allowed to bind for 30 minutes, and quenched with 275 μL IGEN assay buffer. Quantification of the gamma-secretase cleavage products was carried out using an Origen Analyzer.
# BACE2 [1] = biological target: T1, BACE2 (Homo sapiens, UniProt P05067, A673V/D672E/K670N/M671F); test: BACE2 cleavage of APP at the beta-secretase cleavage site (ALPHA); settings: MBP-biotinylated APP fusion protein with NFEV site, pH 4.5, 30 minutes
# T1 construct: IC50, BACE2 cleavage of APP at the beta-secretase cleavage site; other: MBP-biotinylated APP fusion protein with NFEV s; activity against BACE2 cleavage of APP at the beta-secretase position; other: result in words; biotin label
# Description: (§1) The effect of Examples 1-4 on cleavage of APP at the beta-secretase cleavage site was assayed as follows:
# (§2) • 25 μL 0.2 M Sodium Acetate, pH 4.5 • 10 μL 10× protease inhibitor cocktail (Roche, cat # 1836153) • 10 μL Bovine Serum Albumin (1 mg/mL solution) • 4 μL 5% CHAPS • 1 μL EDTA (150 mM, pH 4.5) • 2 μL DF • 4 μL MBP(Maltose binding protein)—biotininylated APP fusion protein containing the NFEV BACE cleavage site (bacterially expressed, 10 μM solution) • 1 μL DMSO or compound dissolved in DMSO • 2 μL BACE2 (CHO cell expressed protein, 250 nM) • 41 μL distilled water The reactions were incubated at 37° C. for 30 minutes, and were then quenched with 4 μL 1 M TrisHCl, pH 8.0. Detection of MBP Biotin APP(NF) Cleavage Product using ALPHA ALPHA Assay Mix was Prepared as Follows: • 20 μL Streptavidin Donor Beads (from AlphaScreen General IgG (Protein A) Detection Kit Perkin Elmer Life Sciences); 10,000 pts (Part Number 6760617M) • 20 μL Protein A Acceptor beads (from AlphaScreen General IgG (Protein A) Detection Kit Perkin Elmer Life Sciences); 10,000 pts (Part Number 6760617M) • 3.7 μL Affinity purified anti-NF antibody (203 μg/mL) (described in WO 02/094985) • 4.5 mL 0.1% BSA in PBS • 4 μL of quenched reaction mixture was combined with 46 μL of the assay mix. The reactions were incubated at room temperature overnight and read using the ALPHAQuest plate reader.
# BACE2 [2] = biological target: T2, BACE2 (Homo sapiens, UniProt P05067, K670N/M671F/D672E/A673V); test: as above; settings: result in words
# T2 construct: IC50, BACE2 cleavage of APP at the beta-secretase cleavage site; other: MBP-biotinylated APP fusion protein with NFEV s; activity against BACE2 cleavage of APP at the beta-secretase position; other: result in words; biotin label
# Description: as §1, §2
# BACE2 [3] = test: BACE2 cleavage of EV amyloid / Aβ (mass spectrometric analysis); settings: 100 μM, result in words
# Description: The effect of inhibition of BACE 2 cleavage of EV amyloid was assayed using a protocol described in Shi et al, 2003, J. Biol. Chem., 278:21286-21294. The results of assaying Examples 1-4 at 100 μM are shown below: […]
# BACE1 [4] = biological target: BACE1 (Homo sapiens, UniProt P56817); test: BACE1 cleavage of full-length APP or beta-site P5/P5' peptide (FIG. 3); settings: relative to DMSO-treated
# BACE1 (Homo sapiens, UniProt P56817), sequence (P56817 46-501): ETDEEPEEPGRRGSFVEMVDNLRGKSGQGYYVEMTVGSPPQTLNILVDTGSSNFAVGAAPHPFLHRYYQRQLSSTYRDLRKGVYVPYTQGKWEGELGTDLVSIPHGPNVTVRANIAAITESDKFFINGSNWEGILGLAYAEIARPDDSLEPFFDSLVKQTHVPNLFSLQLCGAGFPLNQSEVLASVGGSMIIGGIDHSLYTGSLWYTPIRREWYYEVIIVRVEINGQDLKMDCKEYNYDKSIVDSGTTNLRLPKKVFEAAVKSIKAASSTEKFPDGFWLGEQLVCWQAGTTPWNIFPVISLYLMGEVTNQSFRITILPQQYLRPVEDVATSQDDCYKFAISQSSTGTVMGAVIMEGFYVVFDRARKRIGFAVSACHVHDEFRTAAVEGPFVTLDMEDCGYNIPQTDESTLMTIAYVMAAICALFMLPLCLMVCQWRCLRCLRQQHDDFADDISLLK
# Text: (§3) FIG. 3(A) depicts inhibition by Statine-Val, which is a known inhibitor of BACE cleavage of both APP and APP fragments, including the beta-site P5/P5′ peptide fragment. […] depicts inhibition by Example 4. The graphs depict inhibition of cleavage of a full-length APP substrate (∘) or the beta-site P5/P5 fragment. (□). Enzymatic activity is shown relative to DMSO-treated BACE cleavage.
# BACE1 [5] = test: as above; settings: relative to DMSO-treated
# Text: as §3
Compound,IC50 (gamma-secretase) [µM],IC50 (BACE2 [1]) [µM],activity against BACE2 cleavage of APP at the beta-secretase position (BACE2 [2]),effect on BACE2 cleavage at all Aβ sites (BACE2 [3]; FIG. 1),effect on BACE2 cleavage at position 34 (BACE2 [3]),effect on BACE2 cleavage at positions 19 and 20 (BACE2 [3]),inhibition of BACE1 cleavage of beta-site P5/P5' peptide fragment (BACE1 [4]),inhibition of BACE1 cleavage of full-length APP substrate (BACE1 [5])
O=C(O)COc1ccc2c(c1)CC(CCc1ccccc1)O2 (stereo not drawn) [Example 3],49,~100,,,,,,
"Oc1cc2c(cc1CCCOc1ccc(-c3nnn[nH]3)cc1Cl)OC(CCc1ccccc1)C2 (stereo not drawn) [Example 4, 6-{3-[2-chloro-4-(1H-tetrazol-5-yl)phenoxy]propyl}-2-(2-phenylethyl)-2,3-dihydro-1benzofuran-5-oI]",,20,capable of inhibiting BACE2 cleavage of APP at the beta-secretase position with similar effectiveness to their inhibition of BACE1 cleavage at the same site,suppressed cleavage at all Aβ sites,blocked cleavage at position 34,enhanced cleavage of Aβ at positions 19 and 20,inhibits cleavage of APP only,inhibits cleavage of APP only
